Source: US11039618B2, “Metam salts and polysulfide soil treatment” (Tessenderlo Kerley, Inc, priority 2016, dated 2021)

Key:
Verticillium [1] = assay: Jar test 2016: Verticillium microsclerotia colonies in treated soil, dry soil plating on NP-10; assay type: cell-based, Verticillium dahliae; conditions: Metam 40 gal/acre (190 kg active/ha); 2016
Experimental: These investigations were performed under laboratory conditions in an initial jar test. We also investigated the pathogen control efficacy of LSS treatments, at 30 gal/acre (90 pounds/acre or 101 Kg/ha of calcium polysulfide) and at 90 gal/acre (276 pounds/acre or 310 Kg/ha of calcium polysulfide), and combined Metam/LSS treatments using Sectagon® brand metam at 20 gal/acre Metam (84 pounds/acre or 94 Kg/ha of metam sodium) with 40 gal/acre LSS (122 pounds/acre or 138 Kg/ha of calcium polysulfide); and at 30 gal/acre Metam (126 pounds/acre or […] of metam sodium) with 20 gal/acre LSS (60 pounds/acre or 67 kg/ha of calcium polysulfide). […] This may be due to lower water saturation in the 2016 tests compared to the saturation in 2015 tests, which was near 100%.
Each treatment listed in Table 1 was replicated 4 times. Verticillium levels in soil were assessed by dry incubation on semi selective media (NP-10) method. Soil collected from a Romaine lettuce field in Salinas, Calif. was used for the investigation. […]
Experimental Setup: Seven treatments were installed in 4 replicates each. […] The equivalent of gal/acre was calculated on the assumption that on acre of soil has an average weight of 3,625,895 lbs. […] Afterwards, soil was split between the two laboratories and were assessed according to the method described.
Verticillium levels in soil were assessed by dry incubation on semi selective media (NP-10). […]
The quantity of Verticillium in soil was assessed by dry soil plating on NP-10 semi-selective medium. […] After that, remaining soil was gently washed off the plates and the number of Verticillium microsclerotia colonies were counted on each plate under a microscope. The number of microsclerotia colonies is used as a standard method to quantify Verticillium in soil and was extrapolated for 1 g soil.
Results were analyzed in a one-way ANOVA (P=0.05) and a Fisher LSD Post-Hoc test. […]
Verticillium assessments were performed parallel in two separate laboratories. […] The quantity of Verticillium in soil was assessed by dry soil plating on NP-10 semi-selective medium. […]

Black Dot = assay: Field test near Moses Lake, Wash.: black dot colonies in soil after shank treatment; parameters: species or system Colletotrichum coccodes; conditions: single sample sites, 4 inches depth; metam 45 gal/acre; LSS 90 gal/acre; metam + LSS 30 + 30 gal/acre
Experimental: A field test was performed in small plots in a grower's location in near Moses Lake, Wash. using commercial equipment, shanking the product 8-9 inches into the ground, in February 2016. A few treated areas were sampled a few months after treatment. This field is believed to be low in pest pressure. […] The mixture is compatible as a ground application, including using standard tanks, hoses, nozzles, and shanks. It is believed the product will also be stable when added to water to form a dilute product, due to the sodium or potassium hydroxide in metam. Therefore, alkali sulfide salts need not be added.
Location 1 was treated with 45 gallons per acre of Sectagon®, the metam sodium solution, equivalent to 191 pounds metam sodium per acre. This is considered a standard treatment protocol. Section 2 was treated with only liquid lime sulfur, at 90 gallons per acre (276 pounds calcium polysulfide/acre). Section 3 was treated with 30 gallons per acre Sectagon® and 30 gallons per acre liquid lime sulfur (92 pounds calcium polysulfide and 127 pounds metam sodium per acre). The treatment chemicals were obtained from Tessenderlo Kerley. A sufficient time following the treatments, V. dahliae concentrations and black dot concentrations were determined at 4 inches depth and at 8 inches depth at three random sample sites in each treated plot. No controls were run, and the variability in samples were high. […]

Verticillium [2] = assay: Example 6: Verticillium population in treated farm soil samples; assay type: cell-based; conditions: soil from another location
soilborne fungi = assay: Visual observation of general fungal growth on the plates (jar test); assay type: cell-based; conditions: observed visually on the plates
Description: The general impact of LSS on fungal growth was also observed visually on the plates.

Compound: CNC(=S)S [Metam, sodium methyldithiocarbamate]
- Microsclerotia (Verticillium) per gram of soil, ms/g, 2016 (Verticillium [1]): 6.5 ms/g
- Black Dot, 4″ (Black Dot): 0 colonies per gram of soil
- suppression of the Verticillium (Verticillium [2]): only modest suppression
- average Verticillium CFU per gram of dry soil (Verticillium [2]; average over rates: LSS 45 and 90 gal/acre, metam sodium 20 and 40 gal/acre, mixture 20 and 40 gal metam with 45 gal LSS, untreated 41): 30 CFU per gram of dry soil
- reduction of fungal growth of soilborne fungi (soilborne fungi): ~100%
